Columns and labels:
[1] = target: T1, At-A/N-InvA (Arabidopsis thaliana, UniProt Q9FXA8); assay: inhibition of sucrose hydrolysis, fructose by HPAEC-PAD; type: biochemical; details: 100 mM sucrose, 50 mM potassium phosphate, pH 8.2, 30 °C
T1 sequence (Q9FXA8 79-616): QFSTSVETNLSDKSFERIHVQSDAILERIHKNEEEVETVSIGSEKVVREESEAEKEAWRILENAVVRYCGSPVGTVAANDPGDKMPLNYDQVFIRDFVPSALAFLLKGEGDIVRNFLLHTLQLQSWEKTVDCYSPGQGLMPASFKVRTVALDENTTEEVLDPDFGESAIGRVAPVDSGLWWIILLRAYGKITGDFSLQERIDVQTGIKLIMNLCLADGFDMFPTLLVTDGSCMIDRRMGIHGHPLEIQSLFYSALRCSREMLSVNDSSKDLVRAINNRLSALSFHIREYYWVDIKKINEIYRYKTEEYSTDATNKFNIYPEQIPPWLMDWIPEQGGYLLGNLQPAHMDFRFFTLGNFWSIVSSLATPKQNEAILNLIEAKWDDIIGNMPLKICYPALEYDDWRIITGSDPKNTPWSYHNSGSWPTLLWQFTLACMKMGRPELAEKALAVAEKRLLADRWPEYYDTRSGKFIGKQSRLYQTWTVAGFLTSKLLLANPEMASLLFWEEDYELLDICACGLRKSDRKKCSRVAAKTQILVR

[2] = target: T2, At-A/N-InvG (Arabidopsis thaliana, UniProt Q9LQF2); assay: as above; type: biochemical
T2 sequence (Q9LQF2 1-551): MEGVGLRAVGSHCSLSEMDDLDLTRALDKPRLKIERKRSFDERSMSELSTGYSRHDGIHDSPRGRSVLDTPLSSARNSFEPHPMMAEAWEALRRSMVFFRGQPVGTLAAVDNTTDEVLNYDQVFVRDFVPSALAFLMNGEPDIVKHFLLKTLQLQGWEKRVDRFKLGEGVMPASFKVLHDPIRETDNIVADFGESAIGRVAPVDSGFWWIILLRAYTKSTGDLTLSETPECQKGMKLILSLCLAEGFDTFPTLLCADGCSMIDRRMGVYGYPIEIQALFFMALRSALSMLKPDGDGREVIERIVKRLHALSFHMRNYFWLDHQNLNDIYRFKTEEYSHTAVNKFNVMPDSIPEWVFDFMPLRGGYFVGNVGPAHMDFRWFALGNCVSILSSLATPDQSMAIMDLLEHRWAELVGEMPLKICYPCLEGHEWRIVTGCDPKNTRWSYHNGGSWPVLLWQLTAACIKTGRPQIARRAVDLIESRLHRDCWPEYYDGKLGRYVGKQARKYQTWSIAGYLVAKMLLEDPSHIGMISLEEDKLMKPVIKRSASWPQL

## NC(CO)(CO)CO [TRIS]
[1]
  activity vs TRIS concentration: A typical inhibitory effect of TRIS on At-A/N-InvA activity was found
[2]
  IC50: 25 to 30 mM

Reference: PMC3134342 (Journal of Experimental Botany, 2011)
